Data on 9 molecules can be found in patent US9795646B2, “Boswellia oil, its fractions and compositions for enhancing brain function” (LAILA NUTRACEUTICALS, priority 2010, dated 2017).

Converted amounts (≈) assume the structure as drawn. “And” between values parts separate entries of the source, which are not always exact repeats. Equal entries are not always repeated.

The target in data set [1] is T1, acetylcholine esterase (AChE) (Rattus norvegicus, UniProt P37136).
T1 construct: The cell extracts were used as samples for measuring the acetylcholine esterase (AChE) activity; endogenous in cells; host or cells: rat pheochromocytoma PC 12 cells, induced with β-amyloid peptide
T1 sequence (P37136 32-614): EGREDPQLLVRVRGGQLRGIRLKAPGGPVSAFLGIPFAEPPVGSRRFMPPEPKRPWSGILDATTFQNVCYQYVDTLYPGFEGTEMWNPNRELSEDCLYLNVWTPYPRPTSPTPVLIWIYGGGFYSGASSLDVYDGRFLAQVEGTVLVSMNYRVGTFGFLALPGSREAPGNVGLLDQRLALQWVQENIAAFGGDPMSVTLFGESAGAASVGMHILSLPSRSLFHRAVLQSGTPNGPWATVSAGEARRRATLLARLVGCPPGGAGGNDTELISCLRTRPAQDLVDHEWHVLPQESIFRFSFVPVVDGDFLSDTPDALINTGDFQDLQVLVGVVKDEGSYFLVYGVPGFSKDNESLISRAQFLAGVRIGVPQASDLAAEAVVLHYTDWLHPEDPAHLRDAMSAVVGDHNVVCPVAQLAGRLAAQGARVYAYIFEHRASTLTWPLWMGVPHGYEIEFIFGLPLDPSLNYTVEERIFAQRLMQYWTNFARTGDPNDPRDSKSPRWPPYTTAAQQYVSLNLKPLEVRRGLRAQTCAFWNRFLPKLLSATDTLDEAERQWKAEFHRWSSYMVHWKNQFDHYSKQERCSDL
Put plainly: Acetylcholine esterase inhibitory activity in β-amyloid peptide induced PC 12 cells. The data set is classed as cell-based. Particulars: PC 12 cells. The protocol:
(§1) As a part of developing new agents for improving brain/mental function and alleviating disease conditions related to cognition and memory deficits, a large number of plant extracts have been screened for their inhibitory property on Acetylcholinesterase enzyme activity. The assay was performed in vitro by the method of Ellman et al., with minor modifications, using acetylthiocholine iodide as a substrate (Lee J. H., et. al. Arch Pharm Res 2004, 27(1): 53-56). […] Its acetylcholinesterase inhibitory activity was also evaluated by a cell based in vitro assay in Rat pheochromocytoma PC 12 cells. […] Rat pheochromocytoma PC 12 cells were equally distributed with phenol red free Dulbecco's modified Eagle's red medium (DMEM) (Sigma Life Science, USA) containing 10% fetal bovine serum (FBS) in 24-well plate. […] Thereafter, cells were induced with 1 μg/mL of β-amyloid peptide (Calbiochem, USA) for 24 h at 37° C. After 24 h, cells were collected and washed twice with 1×PBS by centrifugation at 1200 rpm for 5 min at 4° C. The cell extracts were prepared in solubilization buffer and the cell lysates were analyzed for acetylcholine esterase (AChE) activity.
The inhibitory property on the enzyme activity was assessed in β-amyloid peptide induced-rat pheochromocytoma PC 12 cells. Rat pheochromocytoma PC 12 cells were equally distributed with phenol red free Dulbecco's modified Eagle's red medium (DMEM) (Sigma Life Science, USA) containing 10% fetal bovine serum (FBS) in 24-well plate. […] Thereafter, cells were induced with 1 μg/mL of β-amyloid peptide (Calbiochem, USA) for 24 h at 37° C. After 24 h, cells were collected and washed twice with 1×PBS by centrifugation at 1200 rpm for 5 min at 4° C. Cell extracts were prepared in solubilization buffer (10 mM Tris, pH 7.2; 100 mM NaCl, 50 mM MgCl2, 1% Triton X-100). The cell extracts were used as samples for measuring the acetylcholine esterase (AChE) activity.
Cell extract samples (100 μl) were dispensed into each well of 96-well microtitre plate. Fifty micro liters of DTNB (Dithiobisnitro benzoate) solution was added to each well and incubated for 5 min at room temperature. After incubation, 50 μl of acetyl choline iodide solution was added to each well and absorbance was read immediately at 405 nm for 12 min at 2 min intervals. A standard curve was constructed by using serial concentrations of acetyl cholinesterase (0-100 mU). Total protein present in 100 μl aliquot of cell extract was calculated by Bradford method and the enzyme activity was normalized and expressed as unit activity per milligram of protein.

Another data set deals with Acetylcholinesterase (Homo sapiens, UniProt P22303). Put plainly: Acetylcholinesterase inhibitory activity, in vitro enzymatic assay (Ellman method). The class given is biochemical. Particulars: Table 3. How it is done:
as §1
Acetylcholinesterase activity is measured using the substrate acetylthiocholine iodide, which is converted to thiocholine. The reaction of thiocholine with the chromogenic substrate Dithionitrobenzoic acid (DTNB) leads to the formation of a yellow anion, Nitrobenzoic acid, which absorbs strongly at 412 nm. Incubation was done for 10 min.
The AChE assay was performed by the method of Ellman et al, with minor modifications, using acetylthiocholine iodide as a substrate (Lee J. H., et. al. Arch Pharm Res 2004, 27(1): 53-56). Ellmans reaction mixture contains 0.5 mM acetylthiocholine iodide and 1 mM 5,5′-dithio-bis-(2-nitrobenzoic acid) in a 50 mM sodium phosphate buffer (pH 8.0). […] For blanks, enzyme was replaced with phosphate buffer. The reaction mixture was mixed thoroughly, 100 μl of Ellman's reagent was added and incubated at room temperature for 10 min. The absorbance was measured at 412 nm using microplate reader. The percentage inhibition of enzyme activity was calculated by comparing OD's of tests wells with that of control wells using the following formula. Calculations: % inhibition=[(control−sample)/control]×100.
Background: Ellman's reagent forms a yellow product with free thiols.

Another data set concerns Sprague Dawley rats. As to the kind of experiment: Spatial learning and memory improvement, elevated radial arm maze (RAM). The data set is classed as in vivo, rat. Particulars: positive control 150 mg/kg, vs control group. From the text: The animal study protocol was approved by institutional animal ethics committee. Sprague Dawley rats were acclimatized for one week and healthy rats were selected for the study. The selected rats were pre-trained in elevated radial arm maze (RAM) adapted rats were allocated to various treatment groups each containing eight rats. After completion of pre-training, the oral treatment was initiated to the animals and continued daily up to two weeks. During this treatment phase the rats were placed on the RAM for 10 min each to recognize the food pellets present in the three different colored arms. During training the spatial learning was estimated by measuring various parameters like number of days required to learn the task, latency in finding food and number of wrong entries/attempts. After this treatment and training the animals were given rest without treatment or training for one week (3rd week). On 4th week, the animals were treated with allocated doses of test products and memory retention test was assessed using the same animals by measuring latency and number of wrong entries. The data was analyzed using ANOVA followed by a suitable post-hoc test.

In the next data set the target is T2, 5-lipoxygenase (5-LOX) (Homo sapiens, UniProt P09917).
T2 sequence (P09917 1-674): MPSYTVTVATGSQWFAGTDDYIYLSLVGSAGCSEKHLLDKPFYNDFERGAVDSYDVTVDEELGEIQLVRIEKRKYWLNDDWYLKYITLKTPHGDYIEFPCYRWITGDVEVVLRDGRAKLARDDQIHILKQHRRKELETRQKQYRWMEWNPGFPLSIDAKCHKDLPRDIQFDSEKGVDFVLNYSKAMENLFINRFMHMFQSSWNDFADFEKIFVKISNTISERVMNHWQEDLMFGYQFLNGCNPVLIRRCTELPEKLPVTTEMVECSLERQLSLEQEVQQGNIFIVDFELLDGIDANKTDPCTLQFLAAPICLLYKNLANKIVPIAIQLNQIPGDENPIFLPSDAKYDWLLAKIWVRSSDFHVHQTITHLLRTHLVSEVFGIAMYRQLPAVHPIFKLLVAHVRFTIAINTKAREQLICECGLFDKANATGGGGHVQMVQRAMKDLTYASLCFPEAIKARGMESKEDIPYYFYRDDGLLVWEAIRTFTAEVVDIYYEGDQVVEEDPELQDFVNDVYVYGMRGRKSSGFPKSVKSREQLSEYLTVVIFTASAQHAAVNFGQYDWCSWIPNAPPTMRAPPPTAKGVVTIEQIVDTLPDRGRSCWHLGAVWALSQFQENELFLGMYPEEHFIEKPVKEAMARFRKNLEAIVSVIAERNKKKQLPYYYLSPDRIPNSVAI
Particulars: read-out: IC50 (5-LOX inhibition); cited from earlier work.

Data set [2] can be described thus: Comparative bioavailability of LI01008 (bisdemethylcurcumin) and its composition (serum, HPLC). Particulars: oral, LI13124F1 450 mg/kg, LI01008 300 mg/kg.

Acetylcholinesterase, sequence (P22303 32-614, species assumed): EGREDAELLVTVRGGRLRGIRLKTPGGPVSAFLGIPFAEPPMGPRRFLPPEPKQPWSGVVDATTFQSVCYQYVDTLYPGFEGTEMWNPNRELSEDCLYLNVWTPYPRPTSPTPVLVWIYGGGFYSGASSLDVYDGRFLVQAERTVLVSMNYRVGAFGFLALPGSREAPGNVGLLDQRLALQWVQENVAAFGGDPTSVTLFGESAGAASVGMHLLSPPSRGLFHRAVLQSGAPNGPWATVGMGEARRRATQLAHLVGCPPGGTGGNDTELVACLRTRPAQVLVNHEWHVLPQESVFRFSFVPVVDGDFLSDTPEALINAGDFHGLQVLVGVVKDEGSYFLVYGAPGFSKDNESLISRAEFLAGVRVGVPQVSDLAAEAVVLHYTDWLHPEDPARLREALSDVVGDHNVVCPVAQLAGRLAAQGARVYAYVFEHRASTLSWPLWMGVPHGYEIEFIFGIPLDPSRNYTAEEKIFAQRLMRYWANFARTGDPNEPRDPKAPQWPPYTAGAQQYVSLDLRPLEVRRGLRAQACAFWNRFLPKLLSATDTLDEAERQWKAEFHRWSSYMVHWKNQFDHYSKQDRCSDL

With `CN(C)C(=O)Oc1cccc([N+](C)(C)C)c1` [Neostigmin], the “% inhibition in AChE activity” value is 49.1% and 49.09% in data set [1] (20 ng/ml, Table 4); 54.65% in data set [1] (20 ng/ml, Table 5).
Take `CC(=O)O[C@@H]1CC[C@@]2(C)[C@@H](CC[C@]3(C)[C@@H]2CC=C2[C@@H]4[C@@H](C)[C@H](C)CC[C@]4(C)CC[C@]23C)[C@@]1(C)C(=O)O` [3-O-acetyl-β-boswellic acid]: on Acetylcholinesterase, the % Inhibition (commonly the share of the control response that was lost under treatment) at concentrations of 25 ng came out at 36.29%; the “% Inhibition at concentrations of 50 ng” value came out at 40.32%; the “% Inhibition at concentrations of 100 ng” value amounted to 52.02%; the IC50 (as a rule, the concentration that gives 50% inhibition) came out at 0.09177 µg/mL (≈ 0.184 µM). In addition, the “% inhibition in AChE activity” value in data set [1] (100 ng/ml, Table 5) was 37.34%.
With `NC(=O)CN1CCCC1=O` [Piracetam], the “spatial learning (reduction in latency and Number of wrong entries)” value with Sprague Dawley rats was “significant improvement”.
3-O-acetyl-11-keto-β-boswellic acid: the IC50 at 5-lipoxygenase (5-LOX) was 1500 nM. At Acetylcholinesterase, the “% Inhibition at concentrations of 25 ng” value was 9.64%, the “% Inhibition at concentrations of 50 ng” value is given as 16.07%, the “% Inhibition at concentrations of 100 ng” value was 27.5% and the IC50 is over 0.1 µg/mL. Besides, in data set [1] (100 ng/ml, Table 5), the “% inhibition in AChE activity” value was determined as 41.67%.
In the case of `C[C@H]1[C@H](C)CC[C@]2(C)CC[C@]3(C)C(=CC[C@@H]4[C@@]5(C)CC[C@@H](O)[C@](C)(C(=O)O)[C@@H]5CC[C@]43C)[C@H]12` [β-boswellic acid], at Acetylcholinesterase, the “% Inhibition at concentrations of 25 ng” value was 16.75%, the “% Inhibition at concentrations of 50 ng” value came out at 21.23%, the “% Inhibition at concentrations of 100 ng” value worked out at 31.37% and the 50% inhibitory concentration (IC50) was over 0.1 µg/mL. Also, the “% inhibition in AChE activity” value in data set [1] (100 ng/ml, Table 5) came out at 46.54%.
For `CC(=O)O[C@@H]1CC[C@@]2(C)[C@@H](CC[C@]3(C)[C@@H]2CC=C2[C@@H]4CC(C)(C)CC[C@]4(C)CC[C@]23C)[C@@]1(C)C(=O)O` [3-O-acetyl-α-boswellic acid], in that order: 14.86%, 21.28%, 33.11%, over 0.1 µg/mL and 29.22%.
As for `O=C(/C=C/c1ccc(O)c(O)c1)CC(=O)/C=C/c1ccc(O)c(O)c1` [LI 01008, bisdemethylcurcumin], the “Serum concentration of bisdemethylcurcumin” value in data set [2] (time after admn. 0, suspension in 0.5% CMC) was found to be 0; in data set [2] (time after admn. 0.5 (hours)) it was 0.07; in data set [2] (time after admn. 1 (hours)), 0.1085; in data set [2] (time after admn. 2 (hours)), 0.078; in data set [2] (time after admn. 4 (hours)) it was 0.035; in data set [2] (time after admn. 6 (hours)), 0.00535. In addition, the “Serum concentration of bisdemethylcurcumin” value in data set [2] (time after admn. 8 (hours)) and in data set [2] (time after admn. 12 (hours)) was 0 throughout.
As for `C[C@H]1[C@H](C)CC[C@]2(C)CC[C@]3(C)C(=CC(=O)[C@@H]4[C@@]5(C)CC[C@@H](O)[C@](C)(C(=O)O)[C@@H]5CC[C@]43C)[C@H]12` [11-keto-β-boswellic acid], on Acetylcholinesterase, the “% Inhibition at concentrations of 25 ng” value stood at 11.82%, the “% Inhibition at concentrations of 50 ng” value is 16.36%, the “% Inhibition at concentrations of 100 ng” value stood at 24.55% and the half-inhibitory concentration (IC50) is over 0.1 µg/mL. Also, the “% inhibition in AChE activity” value in data set [1] (100 ng/ml, Table 5) was found to be 31.39%.
For `CC1(C)CC[C@]2(C)CC[C@]3(C)C(=CC[C@@H]4[C@@]5(C)CC[C@@H](O)[C@](C)(C(=O)O)[C@@H]5CC[C@]43C)[C@@H]2C1` [α-boswellic acid] the same measures were 13.85%, 21.92%, 39.23%, over 0.1 µg/mL and 38.42%.
